Test results as given in PubChem BioAssay (NCI).
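Where inhibition never reached the appropriate level, the endpoint shown equals the highest concentration tested. Otherwise, values were interpolated linearly from a five-concentration, 48-hour dose response in 96-well plates. The concentration for 50% growth inhibition is given as GI50. TGI is the concentration that stops growth completely.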

Columns and labels:
Experiment in all cases: inhibition of tumour cell growth, NCI panel, 48 h
KM20L2 colon = system: KM20L2 colon
LXFL 529 NSCLC = system: LXFL 529 NSCLC
M19-MEL melanoma = system: M19-MEL melanoma
MOLT-4 leukemia = system: MOLT-4 leukemia
RXF 393 renal = system: RXF 393 renal
SK-MEL-2 melanoma = system: SK-MEL-2 melanoma
SK-OV-3 ovarian = system: SK-OV-3 ovarian
SNB-78 CNS = system: SNB-78 CNS
U251 CNS = system: U251 CNS
SR leukemia = system: SR leukemia

Structure (SMILES) | TGI (KM20L2 colon) | TGI (LXFL 529 NSCLC) | TGI (M19-MEL melanoma) | TGI (MOLT-4 leukemia) | TGI (RXF 393 renal) | TGI (SK-MEL-2 melanoma) | TGI (SK-OV-3 ovarian) | TGI (SNB-78 CNS) | TGI (U251 CNS) | TGI (SR leukemia) | GI50 (KM20L2 colon) | GI50 (LXFL 529 NSCLC) | GI50 (RXF 393 renal) | GI50 (SK-MEL-2 melanoma) | GI50 (SK-OV-3 ovarian) | GI50 (SNB-78 CNS) | GI50 (SR leukemia) | GI50 (U251 CNS) | GI50 (MOLT-4 leukemia)
C#CCNC(=O)N(CC#C)N=O | > 100 µM | > 100 µM | > 100 µM | > 100 µM | > 100 µM | > 100 µM | > 100 µM | > 100 µM | > 100 µM | – | – | – | – | – | – | – | – | – | –
COc1ccccc1C1C(Cl)C(=O)N1n1cnc2ccccc2c1=O (centres undefined) | > 100 µM | > 100 µM | > 100 µM | > 100 µM | > 100 µM | > 100 µM | > 100 µM | > 100 µM | > 100 µM | > 100 µM | – | – | – | – | – | – | – | – | –
COC1OC(CO)C(O)C(OC(C)=O)C1NC(=O)N(CCCl)N=O (centres undefined) | > 100 µM | > 100 µM | > 100 µM | > 100 µM | > 100 µM | 8.75 µM | > 100 µM | > 100 µM | – | – | – | – | – | – | – | – | – | – | –
O=[N+]([O-])c1ccc(C2CC(c3ccccc3Cl)=Nc3ccccc3S2)cc1 (centres undefined) | 46.6 µM | 11.8 µM | 29.1 µM | 5.37 µM | 12.6 µM | 24.5 µM | > 85.3 µM | > 94.2 µM | 12.2 µM | 5.27 µM | – | – | – | – | – | – | – | – | –
Oc1ccc([Te]CCNCC[Te]c2ccc(O)cc2)cc1 | 55.1 µM | 32 µM | 50.5 µM | > 100 µM | – | – | 98.9 µM | 78.6 µM | 25.6 µM | > 100 µM | – | – | – | – | – | – | – | – | –
CCCCCCCCOCC(O)COC(C)C (centres undefined) | > 100 µM | > 100 µM | > 100 µM | 45 µM | – | – | > 100 µM | – | > 100 µM | 40.2 µM | – | – | – | – | – | – | – | – | –
Cc1cc([N+](=O)[O-])ccc1NC(=O)C(=O)C(C(=O)c1ccccc1-c1ccccc1)C1OC(=O)c2ccccc21 (centres undefined) | 15.5 µM | 30 µM | 28.8 µM | 72.2 µM | 19.5 µM | 29.2 µM | 65.6 µM | 58.7 µM | 26 µM | 54.7 µM | – | – | – | – | – | – | – | – | –
N.N.NCCCCCN.O=C([O-])CCl.O=C([O-])CCl.O=C([O-])CCl.O=C([O-])CCl.[Pt+4].[Pt+4] | 32 µM | 91.2 µM | – | – | 21.1 µM | > 100 µM | 48.1 µM | > 100 µM | 40.6 µM | 16.8 µM | 11.7 µM | 17.3 µM | 2.87 µM | 35.8 µM | 8.01 µM | 24 µM | 1.73 µM | 5.06 µM | –
CSc1ccc(-c2ccccc(=O)c2O)cc1 | – | – | – | > 100 µM | 16.2 µM | 31.4 µM | > 100 µM | – | 24.6 µM | 14.5 µM | – | – | 0.976 µM | 0.966 µM | 0.551 µM | – | 0.404 µM | 0.568 µM | 0.348 µM
CN1C(=O)CCC2[C@@H]3CC=C4C[C@@H](O)CC[C@]4(C)C3CC[C@@]21C (some centres undefined) | > 100 µM | > 100 µM | > 100 µM | 69.6 µM | > 100 µM | > 100 µM | > 100 µM | > 100 µM | > 100 µM | – | – | – | – | – | – | – | – | – | –
O=c1cc(-c2ccccc2)oc2ccc(OC/C(=N/O)c3ccccc3)cc12 | – | – | – | > 50 µM | 14.8 µM | > 50 µM | 16.2 µM | – | > 50 µM | > 50 µM | – | – | 2.46 µM | 29.6 µM | 1.1 µM | – | 1.73 µM | 2.35 µM | 5.72 µM
CSC1=Nc2c(c(C)c(-c3ccccc3)n2CCCN2CCCCC2)C2=NC(=O)C[C@H](C)N12 | – | – | – | > 22.5 µM | 10.2 µM | 5.26 µM | 8.57 µM | – | 17.7 µM | > 100 µM | – | – | 2.56 µM | 2.14 µM | 2.66 µM | – | 16.7 µM | 2.71 µM | 4.38 µM
COC(=O)C1=Cc2cc(OC)c(OC)c(OC)c2[C@H](c2cc(OC)c(OC)c(OC)c2)C1C(=O)OC (some centres undefined) | > 100 µM | > 100 µM | > 100 µM | > 100 µM | > 100 µM | – | > 100 µM | > 100 µM | > 100 µM | – | – | – | – | – | – | – | – | – | –
Cc1ccc(S(=O)(=O)c2ccc(NC(=O)SCCC(=O)O)cc2)cc1 | > 100 µM | > 100 µM | – | > 100 µM | > 100 µM | > 100 µM | – | > 100 µM | > 100 µM | > 100 µM | – | – | – | – | – | – | – | – | –
CCOC(=O)[C@@H](C)C[C@H](Cc1ccccc1)NC(=O)c1nc([C@@H](C[C@H](C(C)C)N(C)C(=O)[C@@H](NC(=O)[C@H]2CCCCN2C)C(C)C)OC(C)=O)sc1CCOCc1ccccc1 | – | – | – | 5.61 µM | 1.53 µM | 2.39 µM | > 11.1 µM | – | 1.62 µM | 1.87 µM | – | – | 0.0657 µM | 0.0639 µM | 0.0188 µM | – | 0.0313 µM | 0.0716 µM | 0.132 µM
O=C(C=C1SCCS1)/C=C\c1ccc(Cl)cc1 | – | > 100 µM | > 100 µM | > 100 µM | – | > 100 µM | > 100 µM | > 100 µM | – | > 100 µM | – | – | – | – | – | – | – | – | –
Cc1ccc(Cl)cc1Nc1nc(C(F)(F)F)ccc1C(=O)N/N=C/c1cccnc1 | – | – | – | 10.7 µM | 7.5 µM | 15.3 µM | 15.9 µM | – | 11.7 µM | – | – | – | 1.36 µM | 3.74 µM | 3.31 µM | – | 0.148 µM | 2.14 µM | 1.42 µM
Cc1cccc(-c2[nH]ncc2-c2ccc3ncccc3n2)n1 | – | – | – | > 25 µM | 12.7 µM | > 25 µM | > 25 µM | – | > 25 µM | > 25 µM | – | – | 5.87 µM | 10.7 µM | > 21.9 µM | – | 9.2 µM | 9.54 µM | 14.2 µM
COc1c(C)cc(O)cc1C=O | – | > 100 µM | > 100 µM | > 100 µM | > 100 µM | > 100 µM | > 100 µM | > 100 µM | > 100 µM | – | – | – | – | – | – | – | – | – | –
